Results as given in ChEMBL document CHEMBL5523756, “Molecular Transformers: Adaptive Multitarget Ligands for Esterase-Induced Transition from Analgesics to Anesthetics” (J Med Chem, 2024).

Columns and labels:
[1] = Toxicity in Sprague-Dawley rat assessed as ALT level at 19 mg/kg administered as continuous infusion followed by maintenance at 3.25 mg/kg/min for 0 to 20 mins, 2.5 mg/kg/min for 20 to 30 mins and 2 mg/kg/min for 30 to 60 mins; format: organism-based; details: in vivo, other, 1 h, route par
[2] = Toxicity in Sprague-Dawley rat assessed as histopathological changes in heart at 19 mg/kg administered as continuous infusion followed by maintenance at 3.25 mg/kg/min for 0 to 20 mins, 2.5 mg/kg/min for 20 to 30 mins and 2 mg/kg/min for 30 to 60 mins and measured after 14 days by H and E staining based analysis; format: organism-based; details: in vivo, other, 336 h, route par, time 14 day
[3] = molecular target: Sodium channel protein type 10 subunit alpha (Homo sapiens, UniProt Q9Y5Y9); assay: Inhibition of Nav1.8 channel (unknown origin) at resting state at -120 mV conditioning pulse by voltage clamp electrophysiological recording
Sequence of Sodium channel protein type 10 subunit alpha (Q9Y5Y9 whole entry): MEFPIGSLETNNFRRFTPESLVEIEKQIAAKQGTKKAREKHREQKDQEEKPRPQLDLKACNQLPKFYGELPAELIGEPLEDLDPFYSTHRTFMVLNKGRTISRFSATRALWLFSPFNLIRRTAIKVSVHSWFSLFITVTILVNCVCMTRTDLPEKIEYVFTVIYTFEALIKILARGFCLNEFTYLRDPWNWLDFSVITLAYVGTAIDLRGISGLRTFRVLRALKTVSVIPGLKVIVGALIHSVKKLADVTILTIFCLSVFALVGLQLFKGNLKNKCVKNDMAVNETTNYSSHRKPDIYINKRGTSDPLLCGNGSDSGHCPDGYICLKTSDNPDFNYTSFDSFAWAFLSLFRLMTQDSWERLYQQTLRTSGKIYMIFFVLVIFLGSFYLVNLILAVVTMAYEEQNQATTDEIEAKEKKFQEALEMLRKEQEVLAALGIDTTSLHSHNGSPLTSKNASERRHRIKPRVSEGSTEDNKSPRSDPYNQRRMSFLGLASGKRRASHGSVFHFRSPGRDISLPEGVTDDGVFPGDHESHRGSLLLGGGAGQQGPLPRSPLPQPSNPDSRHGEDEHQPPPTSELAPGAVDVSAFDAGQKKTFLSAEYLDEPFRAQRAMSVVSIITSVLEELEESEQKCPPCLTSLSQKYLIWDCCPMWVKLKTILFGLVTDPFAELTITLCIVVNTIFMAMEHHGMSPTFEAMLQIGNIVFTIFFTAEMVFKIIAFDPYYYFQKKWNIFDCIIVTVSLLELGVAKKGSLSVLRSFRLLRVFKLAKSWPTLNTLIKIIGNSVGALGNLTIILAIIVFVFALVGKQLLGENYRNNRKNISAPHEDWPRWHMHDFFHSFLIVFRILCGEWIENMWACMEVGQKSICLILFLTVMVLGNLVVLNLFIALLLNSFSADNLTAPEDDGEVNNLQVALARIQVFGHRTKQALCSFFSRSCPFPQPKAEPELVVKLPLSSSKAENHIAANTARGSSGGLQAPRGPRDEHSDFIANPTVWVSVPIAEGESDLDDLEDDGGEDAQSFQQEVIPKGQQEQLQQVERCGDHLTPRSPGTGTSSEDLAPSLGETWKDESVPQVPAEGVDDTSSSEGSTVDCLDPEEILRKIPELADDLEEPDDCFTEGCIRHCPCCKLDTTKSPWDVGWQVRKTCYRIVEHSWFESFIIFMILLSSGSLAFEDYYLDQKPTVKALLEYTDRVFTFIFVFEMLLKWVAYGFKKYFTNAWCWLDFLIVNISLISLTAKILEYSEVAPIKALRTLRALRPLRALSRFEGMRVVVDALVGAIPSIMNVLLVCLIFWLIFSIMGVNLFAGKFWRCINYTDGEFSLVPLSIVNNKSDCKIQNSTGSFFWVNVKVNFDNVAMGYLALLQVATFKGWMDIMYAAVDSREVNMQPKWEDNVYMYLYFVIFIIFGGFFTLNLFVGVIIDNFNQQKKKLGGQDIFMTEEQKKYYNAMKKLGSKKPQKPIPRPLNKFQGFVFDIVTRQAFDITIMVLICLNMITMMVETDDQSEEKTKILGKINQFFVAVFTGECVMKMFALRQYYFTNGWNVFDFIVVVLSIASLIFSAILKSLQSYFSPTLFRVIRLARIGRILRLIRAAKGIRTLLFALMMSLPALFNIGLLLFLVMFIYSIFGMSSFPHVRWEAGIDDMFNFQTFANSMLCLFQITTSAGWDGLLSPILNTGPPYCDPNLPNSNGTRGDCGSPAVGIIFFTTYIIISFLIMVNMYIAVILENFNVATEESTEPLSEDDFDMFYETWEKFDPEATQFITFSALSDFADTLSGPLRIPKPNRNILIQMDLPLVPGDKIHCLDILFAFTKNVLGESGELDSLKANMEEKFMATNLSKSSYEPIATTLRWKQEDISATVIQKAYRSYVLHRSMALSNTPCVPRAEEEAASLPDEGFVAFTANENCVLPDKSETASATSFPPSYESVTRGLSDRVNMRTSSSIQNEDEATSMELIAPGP

CCN(CC)CCOC(=O)Oc1c(C(C)C)cccc1C(C)C.Cl
Activity [1]: 52.47 U/L
Activity [2]: Non-Toxic
IC50 [3]: > 30 µM
